# Experimental data as given in patent US9289437B2, “Method for preparation of a controlled release system” (Cristal Delivery B.V., priority 2008, dated 2016).
# Conditions: 6 hours after intravenous administration, B16F10 tumor-bearing mice
smiles,measurement,value
"C[C@@H]1C[C@H]2[C@@H]3CCC4=CC(=O)C=C[C@]4(C)[C@@]3(F)[C@@H](O)C[C@]2(C)[C@@]1(O)C(=O)CO [free dexamethasone, dexamethasone]",fraction still residing in the blood stream,0.3%
